Results published in US20230348852A1, “METHODS AND COMPOSITIONS FOR OCULAR CELL THERAPY” (NOVARTIS AG, priority 2020, published 2023).
Entries after “also recorded” stand apart in the source; their conditions may differ.

Assays:
phospho-YAP (ser127) = assay: YAP phosphorylation by Western blot in LSCs exposed to LATS inhibitors; type: cell-based, human; conditions: 10 micromolar, 1 hour, DMSO as negative control
Procedure: The medium was then replaced by fresh limbal epithelium cell culture medium (DMEM F12 supplemented with 10% human serum and 1.3 mM calcium chloride) supplemented with LATS inhibitor compound example no. […] Cells were cultured under these conditions for 1 hour at 37° C. in 5% CO2.
To measure the effect of the LATS inhibitors on the downstream target YAP, the YAP phosphorylation levels were measured by western blot as follows. The cell pellets were obtained by trypsin dissociation and centrifugation and washed with PBS. The pellets were lysed with 30 microlitres of RIPA lysis buffer containing protease inhibitor cocktail (Life Technologies) for 30 minutes, with vortexing every 10 minutes. The cell debris were then pelleted at 4° C. for 15 minutes at 14 k rpm and the protein lysate was collected. Protein concentration was quantified using a micro BCA kit (Pierce). Fifteen micrograms of total protein was loaded in each well of 4-20% TGX gels (BioRad) and Western blotting was performed according to the manufacturer’s instructions. […] Membranes were stained with HRP-conjugated secondary antibodies, rinsed and imaged using a ChemiDoc system (Biorad) according to the manufacturer’s instructions.

human limbal stem cells [1] = assay: Human limbal stem cell population expansion and immunohistochemical observation of p63alpha phenotype; type: cell-based; conditions: for colony formation and p63alpha expression: 10 micromolar, 6 days after isolation without passaging, DMSO as negative control
Procedure: Cells were first cultured at 37° C. in 5% CO2 for 6 days after isolation without passaging (FIGS. 2A, 2B and 2C).
To evaluate the ability of the compounds to enable LSC expansion after two passages, LSCs were passaged and cultured for two weeks in the presence of compound example 3 to enable expansion (FIG. 2D). Limbal stem cells (LSCs) were passaged by treating cultures with Accutase for 10 minutes at 37° C., rinsing the cell suspension by centrifugation and plating cells in fresh LSC culture medium supplemented with LATS inhibitor compound example 3.
In order to observe that the expanded cell population expressed p63alpha, this was measured by immunohistochemistry as follows. Cell cultures were fixed with 4% PFA for 20 minutes, permeabilized and blocked in a blocking solution of 0.3% Triton X-100 (Sigma-Aldrich) and 3% donkey serum in PBS for 30 minutes. Cells were then labeled with primary antibody in the blocking solution for 12 hours at 4° C. Primary antibody used was p63alpha from Cell Signalling. Samples were washed in PBS three times and donkey-raised secondary antibody Alexa Fluor 488 (Molecular Probes) at 1:500 dilution were applied for 30 minutes at room temperature. Cells were counter-stained with a human nuclear antigen antibody (Millipore) at a 1:500 dilution in order to label all cells in the culture and confirm their human identity. […] Fluorescence was observed using a Zeiss LSM 880 confocal microscope.

YAP = assay: Intracellular YAP distribution by immunohistochemistry in LSCs exposed to LATS inhibitors; type: cell-based, human; conditions: 10 micromolar, 24 hours, compared with DMSO control
Procedure: Cells were cultured under these conditions for 24 hours at 37° C. in 5% CO2.
To measure the effect of the LATS inhibitors on the downstream target YAP, intracellular YAP distribution was analyzed by immunohistochemistry. Cell cultures were fixed with 4% PFA for 20 minutes, permeabilized and blocked in a blocking solution of 0.3% Triton X-100 (Sigma-Aldrich) and 3% donkey serum in PBS for 30 minutes. Cells were then labeled with primary antibody in the blocking solution for 12 hours at 4° C. Primary antibody used was anti-YAP from Santa Cruz Biotechnology. Samples were washed in PBS three times and donkey-raised secondary antibody Alexa Fluor 488 (Molecular Probes) at 1:500 dilution were applied for 30 minutes at room temperature. […] Fluorescence was observed using a Zeiss LSM 880 confocal microscope.

human limbal stem cells [2] = assay: Human limbal stem cell population expansion and measurement (expansion factor, p63alpha-positive cells); type: cell-based; conditions: 10 micromolar in XVIVO15 medium, two passages; for Expansion factor: ratio of expanded population to seeded cells; for Percentage of p63a-positive cells: share of Sytox Orange-positive nuclei expressing p63alpha
Procedure: Cells were cultured at 37° C. in 5% CO2.
For each compound, two sets of cultures were generated. A first set of cultures was fixed in 4% PFA for 20 minutes at room temperature after cells isolated from the cornea had attached to the cell culture dish (typically 24 h after cell plating). A second set of cultures was fixed in 4% PFA for 20 minutes at room temperature after being cultured for two passages. Cells were passaged when they reached 90-100% confluence.
In order to observe that the expanded cell population expressed p63alpha, this was measured by immunohistochemistry as follows. The fixed cell cultures were permeabilized and blocked in a blocking solution of 0.3% Triton X-100 (Sigma-Aldrich) and 3% donkey serum in PBS for 30 minutes. Cells were then labeled with primary antibody in the blocking solution for 12 hours at 4° C. Primary antibody used was p63alpha from Cell Signalling. Samples were washed in PBS three times and donkey-raised secondary antibody Alexa Fluor 488 (Molecular Probes) at 1:500 dilution were applied for 30 minutes at room temperature. Cell nuclei were then labeled in a solution of 0.5 micromolar of Sytox Orange (ThermoFisher) in PBS for 5 minutes at room temperature.
To evaluate the percentage of p63alpha-positive cells, the number of cells labeled by the anti-p63alpha antibody was counted and the total number of cells was determined by counting the number of nuclei stained by Sytox Orange. The proportion of p63alpha-positive cells was then determined by calculating the percentage of Sytox-orange-positive nuclei that also expressed p63alpha.
To evaluate cell expansion ratios, nuclei were counted using a Zeiss LSM 880 confocal microscope. The expansion factor was then determined by calculating the ratio of the expanded population of cells to population of seeded cells.

[3] = tested on: Salmonella typhimurium (TA98 and TA100); assay: Bacterial reverse mutation assay (6-well Ames screen); type: cell-based; conditions: TA98 and TA100, absence or presence of rat liver S-9 mix, maximum concentration 500 µg/well
Procedure: A Bacterial Reverse Mutation Assay (“Ames Test”) was performed to evaluate the mutagenic potential of a LATS inhibitor by its effects on one or more histidine-requiring strains of Salmonella typhimurium (TA98 and TA100.) in the absence and presence of a liver metabolizing system.
The 6-well plate Ames test is a miniaturized screening version of the original test using smaller volumes and test item amounts, see e.g. P.A. Escobar et al. (2013), Mut. Res. 752, 99-118. The highest concentration of 500 µg/well used in this 6-well Ames screen corresponds to about the top concentration of […] in the standard Ames test. Liver S-9 mix from male rats induced with Aroclor 1254 was added as a 5% S-9 mix to the test system. […] Standard vehicle used was DMSO.
The test article was regarded positive in this assay if this criterion is met, otherwise it was regarded as negative.

[4] = tested on: human lymphoblastoid TK6 cells; assay: In vitro TK6 micronucleus assay; type: cell-based; conditions: for Conclusion TK6 MNT screen result: 30+0 hour -S-9 up to limit of cytotoxicity, 3+27 hours +S-9 up to 1 mM
Procedure: An in vitro TK6 Micronucleus Assay was performed to evaluate the clastogenic and aneugenic potential of a LATS inhibitor by its effects on the frequency of micronuclei in cultured human lymphoblastoid TK6 cells treated for 30 hours with no recovery in the absence of an Aroclor-induced rat liver metabolizing system (S-9) (30+0 hour -S-9) and for 3 hours in the presence of S-9 with 27 hours of recovery (3+27 hours +S-9).
TK6 cells were cultured in HEPES-buffered RPMI 1640 medium with GlutaMAXTM-1 including 10% (v/v) heat inactivated foetal calf serum, 100 Units/mL/100 µg/mL penicillin / streptomycin. Liver S-9 mix from male rats induced with Aroclor 1254 was added as a 10% S-9 mix to achieve a final concentration of 1% in the test system. […] Standard vehicle used was DMSO.
For valid data, the test item was considered to induce clastogenic and/or aneugenic events if: • A statistically significant increase in the frequency of micronucleated mononucleate (MNMON) cells at one or more concentrations was observed • An incidence of MNMON cells at such a concentration exceeded the normal range in both replicate cultures was observed • A concentration-related increase in the proportion of MNMON cells was observed (positive trend test).
The test item was considered positive in this assay if all of the above criteria were met. The test item was considered negative in this assay if none of the above criteria were met.

[5] = +S-9, 3+27 hours, 337.0 µg/mL (approximately 1 mM)
[6] = +S-9, any concentration up to 337.0 µg/mL
[7] = -S-9, any concentration up to 40.00 µg/mL

SMILES | YAP phosphorylation levels in human LSCs (Western blot) (phospho-YAP (ser127)) | YAP phosphorylation levels in human LSCs (Western blot) (phospho-YAP (ser127); listed as ex. 3) | colony formation and p63alpha expression (human limbal stem cells [1]) | cell population expansion and p63alpha expression after passaging (human limbal stem cells [1]; passaged and cultured for two weeks in the presence of the compound) | YAP immunostaining in the nucleus of LSCs (YAP) | Expansion factor (human limbal stem cells [2]) | Percentage of p63a-positive cells (human limbal stem cells [2]) [%] | YAP phosphorylation levels in human LSCs (Western blot) (phospho-YAP (ser127); listed as ex. 4) | AMES screen result [3] | Conclusion TK6 MNT screen result ([4]; listed as dimethyl(3-methyl-3-{[2-(pyridin-4-yl)pyrido[3,4-d]pyrimid in-4-yl]amino}butyl)a) | Conclusion TK6 MNT screen result ([4]; listed as dimethyl(3-methyl-3-{[2-(pyridin-4-yl)pyrido[3,4-d]pyrimidin-4-yl]amino}butyl)am) | cytotoxicity [4, 5] [%] | increases in micronucleated mononucleate (MNMON) cells [4, 6] | cytotoxicity ([4]; -S-9, 30 hours, 40.00 µg/mL) [%] | increases in micronucleated mononucleate (MNMON) cells [4, 7] | Conclusion TK6 MNT screen result [4]
CC(C)(O)CC(C)(C)Nc1nc(-c2ccncc2)nc2cnccc12 [Example 3, 2,4-dimethyl-4-{[2-(pyridin-4-yl)pyrido[3,4-d]pyrimidin-4-yl]amino}pentan-2-ol] | reduction in YAP phosphorylation levels | induce YAP dephosphorylation in LSCs within one hour | formed colonies and expressed p63alpha | enabled cell population expansion and the formation of confluent cultures expressing p63alpha | stronger in the nucleus | 2029 | 92 |  |  |  |  |  |  |  |  | 
Cc1n[nH]cc1-c1nc(NC2(C)CC2)c2ccncc2n1 [Example 4, 2-(3-methyl-1H-pyrazol-4-yl)-N-(1-methylcyclopropyl)pyrido[3,4-d]pyrimidin-4-amine] | reduction in YAP phosphorylation levels |  | formed colonies and expressed p63alpha |  | stronger in the nucleus | 1205 | 89 | induce YAP dephosphorylation in LSCs within one hour |  |  |  |  |  |  |  | 
CN(C)CCC(C)(C)Nc1nc(-c2ccncc2)nc2cnccc12 [Example 5, Dimethyl(3-methyl-3-{[2-(pyridin-4-yl)pyrido[3,4-d]pyrimidin-4-yl]amino}butyl)amine] |  |  |  |  |  |  |  |  | did not show evidence of a mutagenic potential; also recorded: “negative” | “negative” | did not induce micronuclei | 39 | No statistically significant (p≤0.05) increases | 58 | No statistically significant (p≤0.05) increases | 
Cc1n[nH]cc1-c1nc(NC(C)(C)CCN(C)C)c2ccncc2n1 [Example 6, N^1,N^1,3-trimethyl-N^3-(2-(3-methyl-1H-pyrazol-4-yl)pyrido[3,4-d]pyrimidin-4-yl)butane-1,3-diamine] |  |  |  |  |  |  |  |  | did not show evidence of a mutagenic potential; also recorded: “negative” |  |  | 33 | No statistically significant (p≤0.05) increases | 57 | No statistically significant (p≤0.05) increases | did not induce micronuclei; also recorded: “negative”
